The source of these data is ChEMBL document CHEMBL1201862, “PubChem BioAssay data set” (2004).

Each structure is given as a SMILES string.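 Interpolation was linear, between the two tested concentrations surrounding the appropriate level; five concentrations were tested over 48 hours in 96-well plates. The concentration for 50% growth inhibition is given as GI50.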 Calls of active or inactive are those of the source. Rule as the data show it: active = GI50 up to about 1.1 µM and inactive = higher. Bounds are passed on as bounds.

Test systems include 786-0; A549; CAKI-1; HCT-15; KM-20L2; KM12; M14; Malme-3M; NCI-H522; OVCAR-3; OVCAR-4; OVCAR-5; SNB-19; SNB-75; U-251; UACC-62; MCF7; PC-3; BT-549.
Holding throughout (test): NCI tumour cell line growth inhibition, 48 h

In the case of `CC(C)(C)C1C=C(Sc2ccccc2)C(=O)O1` (configuration not stated), the GI50 in the experiment on 786-0 is 68.9 µM (inactive); with A549 it was 33.3 µM (inactive); in the experiment with CAKI-1, 45.6 µM (inactive); in the experiment with HCT-15 it was 43.3 µM; in the experiment with KM-20L2 it was 39.1 µM (inactive); with KM12, 40.6 µM (inactive). Further, the GI50 was 62.1 µM (inactive) with M14; 97.5 µM (inactive) in the experiment on Malme-3M; 32.7 µM (inactive) in the experiment on NCI-H522; 42.8 µM (inactive) in the experiment on OVCAR-3; 63.8 µM (inactive) in the experiment with OVCAR-4; 34.2 µM (inactive) with OVCAR-5. The GI50 in the experiment on SNB-19 is 57.9 µM (inactive); in the experiment with SNB-75, 22.8 µM (inactive); in the experiment with U-251 it was 54 µM (inactive); with UACC-62, 36.7 µM (inactive).

Regarding `CC(=O)OC12COC1CC(O)C1(C)C(=O)C(O)C3=C(C)C(O)CC(O)(C(OC(=O)c4ccccc4)C21)C3(C)C` (configuration not stated), the GI50 is 13.4 µM (inactive) in the experiment with 786-0; 7.33 µM (inactive) in the experiment on A549; > 96.2 µM (inactive) in the experiment with CAKI-1; over 100 µM with HCT-15; 1.41 µM (inactive) in the experiment on KM-20L2; 0.839 µM (active) in the experiment with KM12. Further, the GI50 with M14 is 5.94 µM (inactive); in the experiment with MCF7, 1.68 µM (inactive); with Malme-3M it was 3.78 µM (inactive); in the experiment with NCI-H522 it was 0.638 µM (active); with OVCAR-3 it was 2.55 µM (inactive); in the experiment on OVCAR-4, > 100 µM (inactive). For the same molecule, the GI50 in the experiment on OVCAR-5 is 3.94 µM (inactive); with PC-3, 3.03 µM (inactive); with SNB-19, 5.31 µM (inactive); with SNB-75, 1.75 µM (inactive); in the experiment on U-251, 0.65 µM (active); in the experiment on UACC-62, > 100 µM (inactive).

For the molecule `O=C1C=C(c2c(O)ccc3ccccc23)c2ccccc2C1=O`, the GI50 in the experiment with 786-0 is 2.15 µM (inactive); with A549, 5.86 µM (inactive); in the experiment with BT-549, 2.48 µM (inactive); with CAKI-1 it was 7.93 µM (inactive); in the experiment on HCT-15, 3.57 µM; with KM-20L2, 15.4 µM (inactive). Besides, the GI50 was 3.77 µM (inactive) with KM12; 4.69 µM (inactive) in the experiment with M14; < 0.01 µM (active) in the experiment on MCF7; 5.2 µM (inactive) with Malme-3M; 1.61 µM (inactive) with NCI-H522; 2.32 µM (inactive) in the experiment with OVCAR-3. In addition, the GI50 with OVCAR-4 was 1.92 µM (inactive); in the experiment with OVCAR-5 it was 10.7 µM (inactive); with PC-3, 2.12 µM (inactive); with SNB-19, 5.96 µM (inactive); in the experiment on SNB-75, 3.87 µM (inactive); in the experiment with U-251, 2.21 µM (inactive). Moreover, in the experiment on UACC-62, the GI50 is 2.35 µM (inactive).

Turning to `CCN(CC)CCCC(C)Nc1c2ccc(Cl)cc2nc2cc(Cl)ccc12` (configuration not stated), the GI50 in the experiment with A549 is 4.78 µM (inactive); in the experiment with CAKI-1, 3.22 µM (inactive); with HCT-15, 3.04 µM; in the experiment on KM-20L2, 3.42 µM (inactive); in the experiment on KM12 it was 3.56 µM (inactive); in the experiment with MCF7 it was 3.13 µM (inactive). The GI50 was 12.2 µM (inactive) in the experiment with Malme-3M; 5.07 µM (inactive) in the experiment on NCI-H522; 5.71 µM (inactive) in the experiment with OVCAR-3; 3.37 µM (inactive) in the experiment on OVCAR-4; 6.7 µM (inactive) in the experiment with OVCAR-5; 17 µM (inactive) in the experiment with SNB-19. Further, the GI50 with SNB-75 was 7.03 µM (inactive); in the experiment on U-251, 5.09 µM (inactive); in the experiment on UACC-62, 6.89 µM (inactive).

As for `Clc1cccc(N2CCN(CCCN3CCc4c([nH]c5ccccc45)C3c3cccnc3)CC2)c1` (configuration not stated), the GI50 was 3.29 µM (inactive) in the experiment on 786-0; 7.78 µM (inactive) in the experiment on A549; 9.68 µM (inactive) in the experiment on CAKI-1; 8.81 µM in the experiment on HCT-15; 4.28 µM (inactive) with KM-20L2; > 10 µM (inactive) in the experiment on KM12. The GI50 is 2.01 µM (inactive) with M14; 2.54 µM (inactive) with Malme-3M; 11.8 µM (inactive) with NCI-H522; 2.67 µM (inactive) in the experiment on OVCAR-3; 6.98 µM (inactive) in the experiment on OVCAR-4; 7.66 µM (inactive) in the experiment with OVCAR-5. Besides, the GI50 was 20.6 µM (inactive) in the experiment with SNB-19, 11 µM (inactive) in the experiment with SNB-75, 10.7 µM (inactive) in the experiment on U-251 and > 10 µM (inactive) in the experiment on UACC-62.

Turning to `CC(=O)Nc1ccc(SC#N)c2c(NC(C)=O)cccc12`, the GI50 with 786-0 was > 100 µM (inactive); in the experiment on A549, > 100 µM (inactive); in the experiment on CAKI-1, > 65 µM (inactive); in the experiment with HCT-15 it was 53.8 µM; in the experiment with KM-20L2, > 100 µM (inactive); in the experiment on KM12, > 66.8 µM (inactive). Further, the GI50 was > 100 µM (inactive) in the experiment with M14; > 100 µM (inactive) in the experiment on Malme-3M; > 47.6 µM (inactive) in the experiment on NCI-H522; 89.9 µM (inactive) in the experiment with OVCAR-3; > 92.9 µM (inactive) in the experiment with OVCAR-4; > 100 µM (inactive) in the experiment on OVCAR-5. Also, the GI50 was > 100 µM (inactive) with SNB-19, > 100 µM (inactive) with SNB-75, > 100 µM (inactive) in the experiment on U-251 and 78.3 µM (inactive) with UACC-62.

On to `C[C@]12CCC(=O)C(O)=C1CCC2=O`, for which the GI50 in the experiment with 786-0 is > 100 µM (inactive); in the experiment with A549 it was > 100 µM (inactive); with CAKI-1 it was > 100 µM (inactive); in the experiment on HCT-15 it was over 100 µM; in the experiment with KM-20L2, > 100 µM (inactive); in the experiment on KM12, > 100 µM (inactive). Also, the GI50 in the experiment on M14, with Malme-3M, with NCI-H522, in the experiment on OVCAR-3, in the experiment with OVCAR-4 and in the experiment on OVCAR-5 was > 100 µM (inactive) in each case. Further, the GI50 with SNB-19, in the experiment on SNB-75, with U-251 and with UACC-62 was > 100 µM (inactive) in each case.

As to `CC1CCCC2(O1)OC1CC(=O)OC1C1=C2C(=O)c2ccccc2C1=O` (configuration not stated), the GI50 in the experiment on 786-0 is 2.14 µM (inactive); in the experiment with A549, 16.9 µM (inactive); in the experiment with CAKI-1, 2.84 µM (inactive); with HCT-15, 2.8 µM; in the experiment with KM-20L2 it was 3.98 µM (inactive); with KM12 it was 12.1 µM (inactive). The GI50 is 2.79 µM (inactive) with M14; 2.45 µM (inactive) in the experiment on Malme-3M; 1.6 µM (inactive) in the experiment with NCI-H522; 2.72 µM (inactive) with OVCAR-3; 1.86 µM (inactive) in the experiment on OVCAR-4; 19.9 µM (inactive) in the experiment on OVCAR-5. The GI50 is 15.6 µM (inactive) with SNB-19, 11.2 µM (inactive) with SNB-75, 18.2 µM (inactive) in the experiment on U-251 and 2.25 µM (inactive) in the experiment with UACC-62.
